{"source": "patent US20180045715A1", "about": "“STRUCTURE AND FUNCTION OF THE SALICYCLIC ACID BINDING SITES ON HUMAN HMGB1 AND METHODS OF USE THEREOF FOR THE RATIONAL DESIGN OF BOTH SALICYCLIC ACID DERIVATIVES AND OTHER AGENTS THAT ALTER ANIMAL AND PLANT HMGBS ACTIVITIES” (Boyce Thompson Institute for Plant Research, Inc., priority 2015, published 2018)", "target": "T1, R50A/K54A mutant AtHMGB3 (Arabidopsis thaliana, UniProt P93047, K54A/R50A)", "T1 construct": "providing a full length Arabidopsis thaliana HMGB1 or HMGB3 (AtHMGB1 or AtHMGB3) protein; made in house", "T1 sequence (P93047 whole entry R50A/K54A)": "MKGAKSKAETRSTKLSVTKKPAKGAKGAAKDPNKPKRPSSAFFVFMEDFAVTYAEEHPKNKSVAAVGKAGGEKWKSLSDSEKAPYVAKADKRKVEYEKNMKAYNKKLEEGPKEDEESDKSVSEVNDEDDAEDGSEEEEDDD", "assay": "Callose deposition with mutant R50A/K54A AtHMGB3", "settings": "in vivo", "description": "Arabidopsis leaves were collected 15 h after infiltration with 100 nM AtHMGB3 or 100 nM Pep1, and then immediately immersed in alcoholic lactophenol (phenol:glycerol:lactic acid:water:ethanol=1:1:1:1:8) to destain the chlorophyll. To remove the background fluorescence, destained leaves were treated with toluidine blue O solution (0.05% toluidine blue O, 0.1 M sodium acetate, pH 4.4) for 30 min, and then rinsed twice with 150 mM K2HPO4 (pH 9.5). Callose was stained with aniline blue solution (0.02% aniline blue, 150 mM K2HPO4, pH 9.5) for 30 min in the absence of light. The aniline blue-stained leaves were mounted with 25% glycerol and analyzed using a Leica DM5500 epifluorescence microscope. The number of callose loci was quantified using an ImageJ (NIH).\nThus, these residues (R50 and K54) were mutated to Ala, and the resulting mutant AtHMGB3 tested for its ability to activate MPK3/6 and induce callose deposition in the absence or presence of SA. The R50A/K54A mutant AtHMGB3 retained its ability to activate MPK3/6 and induce callose deposition, but inhibition of these activities by SA was lost (FIG. 7H,I and FIG. 8)."}
{"smiles": "O=C(O)c1ccccc1O", "note": "[SA, salicylic acid]", "values": [{"measurement": "inhibition by SA of callose deposition induced by R50A/K54A AtHMGB3", "result": "lost"}]}
